Reference: US20260201008A1, “SECRETIN-DERIVED GLP1R SELECTIVE AGONISTS” (GUBRA A/S, priority 2023, published 2026)
Like-named read-outs stand apart in the source and are kept apart here. Numbered stars: 1 amine (or outer) side, 2 acyl side, 3 side chain; on linkers, the order of the positions; unused ones are H or OH. Square brackets hold non-standard residues; d marks the D form. Side chains are listed from the residue outwards. Peptide text beside a SMILES is read from it. * marks the point of attachment. C20 diacid = O=C(O)CCCCCCCCCCCCCCCCCCC(=O)*; γGlu = O=C(O)[C@H](CCC(=O)[*:2])N[*:1]; AEEA = NCCOCCOCC(=O)O; Aib = CC(C)(N)C(=O)O

How the values were obtained:
SCTR = SCTR (Homo sapiens, UniProt P47872); experiment: hSCTR potency, cAMP accumulation in CHO-K1 cells stably overexpressing hSCTR; assay type: cell-based; set-up: alternatively Euroscreen ES-712-AF; FAST-0161L; host or cells: CHO-K1; conditions: cAMP accumulation, CHO-K1 cells overexpressing hSCTR
Outline: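 Potency reflects cAMP accumulation after 30 min agonist exposure at room temperature in hSCTR-expressing CHO-K1 cells, with 0.5 mM IBMX present to block phosphodiesterase. EC50 was derived by nonlinear regression.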

[1] = Fibril formation of crude library peptides (Thioflavin T); assay type: physicochemical; set-up: key: average ThT fluorescence emission at 480 nm (ex 450 nm), raw units; conditions: Physical stability of peptides
Outline: (§1)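 Values reflect mean ThT emission (ex 450, em 480 nm) over 72 h at 40° C, read every 10 min after 5 min shaking at 700 rpm, plus a single initial absorbance at 600 nm for turbidity. Peptides were at 267 μM, pH 4.0 acetate or pH 7.0 phosphate (50 mM), with 4 μM ThT.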

GLP1R = GLP1R (Homo sapiens, UniProt P43220); experiment: hGLP1R potency, cAMP accumulation in CHO-K1 cells stably overexpressing hGLP1R; assay type: cell-based; set-up: host or cells: CHO-K1; conditions: for Selectivity: SCTR EC50/GLP1R EC50 ratio; for EC50: cAMP accumulation, CHO-K1 cells overexpressing hGLP1R; for SCTR EC50/GLP1R EC50 ratio: selectivity for hGLP1R over hSCTR, cAMP accumulation in CHO-K1 cells
Outline: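 Potency reflects cAMP accumulation measured by time-resolved fluorescence energy transfer after a 30 min room-temperature stimulation in IBMX-containing (0.5 mM) DPBS with casein. Purified peptides were tested in duplicate over eleven threefold dilutions, and EC50 was obtained from sigmoid concentration-response fitting.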

[2] = Turbidity of crude library peptides (absorbance at 600 nm); assay type: physicochemical; conditions: Physical stability of peptides
Outline: as §1

[3] = read-out: pEC50 hSCTR (converted)
[4] = read-out: pEC50 hGLPR1 (converted)
[5] = read-out: hSCTR pEC50 (converted)
[6] = read-out: hGLP1R pEC50 (converted)

Sequence of GLP1R (P43220 24-463): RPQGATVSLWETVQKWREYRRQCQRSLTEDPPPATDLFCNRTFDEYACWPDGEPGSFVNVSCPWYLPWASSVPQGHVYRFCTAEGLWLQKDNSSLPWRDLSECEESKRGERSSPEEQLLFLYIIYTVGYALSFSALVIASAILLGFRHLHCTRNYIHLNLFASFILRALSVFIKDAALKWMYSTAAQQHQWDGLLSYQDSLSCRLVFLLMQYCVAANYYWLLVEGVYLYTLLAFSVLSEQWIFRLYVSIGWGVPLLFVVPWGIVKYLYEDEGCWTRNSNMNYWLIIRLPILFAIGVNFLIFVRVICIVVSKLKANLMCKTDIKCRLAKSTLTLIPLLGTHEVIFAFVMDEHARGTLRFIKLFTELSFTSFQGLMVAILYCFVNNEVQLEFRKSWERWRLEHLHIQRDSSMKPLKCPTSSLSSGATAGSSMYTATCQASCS
Sequence of SCTR (P47872 23-440): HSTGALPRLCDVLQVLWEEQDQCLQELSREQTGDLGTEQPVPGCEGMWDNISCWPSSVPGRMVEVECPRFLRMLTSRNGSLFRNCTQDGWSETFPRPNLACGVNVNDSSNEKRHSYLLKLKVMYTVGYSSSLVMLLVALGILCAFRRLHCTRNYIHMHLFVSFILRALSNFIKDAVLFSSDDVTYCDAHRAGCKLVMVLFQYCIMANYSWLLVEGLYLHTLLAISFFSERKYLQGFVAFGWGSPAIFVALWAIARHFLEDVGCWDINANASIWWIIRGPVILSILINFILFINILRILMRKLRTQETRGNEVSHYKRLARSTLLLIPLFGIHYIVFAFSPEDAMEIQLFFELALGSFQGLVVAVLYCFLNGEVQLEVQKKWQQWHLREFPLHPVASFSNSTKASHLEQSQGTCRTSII

Row | EC50 (SCTR; [3]) [nM] | Fibril formation [1] | Selectivity (GLP1R) | EC50 (GLP1R; [4]) [nM] | Turbidity (pH 7) [2] | EC50 (SCTR; [5]) [nM] | EC50 (GLP1R; [6]) [nM] | SCTR EC50/GLP1R EC50 ratio (GLP1R) | SMILES
1 | 251 | 6899 | 22387 | 0.0126 | 0.08 | – | – | – | CC(C)C[C@H](NC(=O)[C@H](Cc1ccccc1)NC(=O)[C@H](CCCNC(=N)N)NC(=O)[C@H](CCC(N)=O)NC(=O)[C@@H](NC(=O)[C@H](C)NC(=O)[C@H](C)NC(=O)[C@H](CCC(=O)O)NC(=O)[C@H](CCC(=O)O)NC(=O)[C@H](CCCCNC(=O)COCCOCCNC(=O)COCCOCCNC(=O)CC[C@H](NC(=O)CCCCCCCCCCCCCCCCCCC(=O)O)C(=O)O)NC(=O)[C@H](CC(C)C)NC(=O)[C@H](Cc1ccc(O)cc1)NC(=O)[C@H](CO)NC(=O)[C@@H](NC(=O)[C@H](CC(=O)O)NC(=O)[C@H](CO)NC(=O)[C@@H](NC(=O)[C@H](Cc1ccccc1)NC(=O)[C@@H](NC(=O)CNC(=O)[C@H](CCC(=O)O)NC(=O)C(C)(C)NC(=O)[C@@H](N)Cc1c[nH]cn1)[C@@H](C)O)[C@@H](C)O)C(C)C)[C@@H](C)O)C(=O)N[C@@H](CCC(=O)O)C(=O)N[C@@H](Cc1c[nH]cn1)C(=O)N[C@@H](CC(C)C)C(=O)N[C@H](C(N)=O)C(C)C [compound 30] (H-H[Aib]EGTFTSDVSYLK([AEEA-AEEA-γGlu-C20 diacid])EEAATQRFLEHLV-NH2)
2 | – | 8019 | – | – | 0.09 | 398 | 0.0126 | 31579 | CC(C)C[C@H](NC(=O)[C@H](Cc1ccccc1)NC(=O)[C@H](CCCNC(=N)N)NC(=O)[C@H](CCC(N)=O)NC(=O)[C@H](C)NC(=O)[C@H](C)NC(=O)[C@H](C)NC(=O)[C@H](CCC(=O)O)NC(=O)[C@H](CCC(=O)O)NC(=O)[C@H](CCCCNC(=O)COCCOCCNC(=O)COCCOCCNC(=O)CC[C@H](NC(=O)CCCCCCCCCCCCCCCCCCC(=O)O)C(=O)O)NC(=O)[C@H](CC(C)C)NC(=O)[C@@H](NC(=O)[C@H](CO)NC(=O)[C@@H](NC(=O)[C@H](CC(=O)O)NC(=O)[C@H](CO)NC(=O)[C@@H](NC(=O)[C@H](Cc1ccccc1)NC(=O)[C@@H](NC(=O)CNC(=O)[C@H](CCC(=O)O)NC(=O)C(C)(C)NC(=O)[C@@H](N)Cc1c[nH]cn1)[C@@H](C)O)[C@@H](C)O)C(C)C)[C@@H](C)O)C(=O)N[C@@H](CCC(=O)O)C(=O)N[C@@H](Cc1c[nH]cn1)C(=O)N[C@@H](CC(C)C)C(=O)N[C@H](C(N)=O)C(C)C [compound 96] (H-H[Aib]EGTFTSDVSTLK([AEEA-AEEA-γGlu-C20 diacid])EEAAAQRFLEHLV-NH2)
3 | 79.4 | 14344 | 10668 | 0.00631 | 0.09 | – | – | – | CC(C)C[C@H](NC(=O)[C@H](Cc1ccccc1)NC(=O)[C@H](CCCNC(=N)N)NC(=O)[C@H](CCC(N)=O)NC(=O)[C@H](CCC(N)=O)NC(=O)[C@H](C)NC(=O)[C@H](C)NC(=O)[C@H](CCC(=O)O)NC(=O)[C@H](CCC(=O)O)NC(=O)[C@H](CCCCNC(=O)COCCOCCNC(=O)COCCOCCNC(=O)CC[C@H](NC(=O)CCCCCCCCCCCCCCCCCCC(=O)O)C(=O)O)NC(=O)[C@H](CC(C)C)NC(=O)[C@H](CCCNC(=N)N)NC(=O)[C@H](CO)NC(=O)[C@@H](NC(=O)[C@H](CC(=O)O)NC(=O)[C@H](CO)NC(=O)[C@@H](NC(=O)[C@H](Cc1ccccc1)NC(=O)[C@@H](NC(=O)CNC(=O)[C@H](CCC(=O)O)NC(=O)C(C)(C)NC(=O)[C@@H](N)Cc1c[nH]cn1)[C@@H](C)O)[C@@H](C)O)C(C)C)C(=O)N[C@@H](CCC(=O)O)C(=O)N[C@@H](Cc1c[nH]cn1)C(=O)N[C@@H](CC(C)C)C(=O)N[C@H](C(N)=O)C(C)C [compound 73] (H-H[Aib]EGTFTSDVSRLK([AEEA-AEEA-γGlu-C20 diacid])EEAAQQRFLEHLV-NH2)
4 | 631 | 170210 | 7342 | 0.0794 | 0.10 | – | – | – | CC(C)C[C@H](NC(=O)[C@H](CCC(=O)O)NC(=O)[C@H](CCCCNC(=O)COCCOCCNC(=O)COCCOCCNC(=O)CC[C@H](NC(=O)CCCCCCCCCCCCCCCCCCC(=O)O)C(=O)O)NC(=O)[C@H](CC(C)C)NC(=O)[C@H](CCCNC(=N)N)NC(=O)[C@H](CO)NC(=O)[C@@H](NC(=O)[C@H](CC(=O)O)NC(=O)[C@H](CO)NC(=O)[C@@H](NC(=O)[C@H](Cc1ccccc1)NC(=O)[C@@H](NC(=O)CNC(=O)[C@H](CCC(=O)O)NC(=O)C(C)(C)NC(=O)[C@@H](N)Cc1c[nH]cn1)[C@@H](C)O)[C@@H](C)O)C(C)C)C(=O)N[C@@H](C)C(=O)N[C@@H](C)C(=O)N[C@@H](CO)C(=O)N[C@@H](CCC(N)=O)C(=O)N[C@@H](CCCNC(=N)N)C(=O)N[C@@H](Cc1ccccc1)C(=O)N[C@@H](CC(C)C)C(=O)N[C@@H](CCC(=O)O)C(=O)N[C@@H](Cc1c[nH]cn1)C(=O)N[C@@H](CC(C)C)C(=O)N[C@H](C(N)=O)C(C)C [compound 19] (H-H[Aib]EGTFTSDVSRLK([AEEA-AEEA-γGlu-C20 diacid])ELAASQRFLEHLV-NH2)
5 | 63.1 | 97558 | 4577 | 0.0126 | 0.08 | – | – | – | CC(C)C[C@H](NC(=O)[C@H](Cc1ccccc1)NC(=O)[C@H](CCCNC(=N)N)NC(=O)[C@H](CCC(N)=O)NC(=O)[C@@H](NC(=O)[C@H](C)NC(=O)[C@H](C)NC(=O)[C@@H](NC(=O)[C@H](CCC(=O)O)NC(=O)[C@H](CCCCNC(=O)COCCOCCNC(=O)COCCOCCNC(=O)CC[C@H](NC(=O)CCCCCCCCCCCCCCCCCCC(=O)O)C(=O)O)NC(=O)[C@H](CC(C)C)NC(=O)[C@H](CCCNC(=N)N)NC(=O)[C@H](CO)NC(=O)[C@@H](NC(=O)[C@H](CC(=O)O)NC(=O)[C@H](CO)NC(=O)[C@@H](NC(=O)[C@H](Cc1ccccc1)NC(=O)[C@@H](NC(=O)CNC(=O)[C@H](CCC(=O)O)NC(=O)C(C)(C)NC(=O)[C@@H](N)Cc1c[nH]cn1)[C@@H](C)O)[C@@H](C)O)C(C)C)[C@@H](C)O)[C@@H](C)O)C(=O)N[C@@H](CCC(=O)O)C(=O)N[C@@H](Cc1c[nH]cn1)C(=O)N[C@@H](CC(C)C)C(=O)N[C@H](C(N)=O)C(C)C [compound 26] (H-H[Aib]EGTFTSDVSRLK([AEEA-AEEA-γGlu-C20 diacid])ETAATQRFLEHLV-NH2)
6 | – | 260000 | – | – | 0.43 | 251 | 0.0251 | 10252 | CC[C@H](C)[C@H](NC(=O)[C@H](Cc1ccccc1)NC(=O)[C@H](CCCNC(=N)N)NC(=O)[C@H](CCC(N)=O)NC(=O)[C@H](CC(C)C)NC(=O)[C@H](C)NC(=O)[C@H](C)NC(=O)CNC(=O)[C@H](CCC(=O)O)NC(=O)[C@H](CC(C)C)NC(=O)[C@H](CC(C)C)NC(=O)[C@@H](NC(=O)[C@H](CO)NC(=O)[C@@H](NC(=O)[C@H](CC(=O)O)NC(=O)[C@H](CO)NC(=O)[C@@H](NC(=O)[C@H](Cc1ccccc1)NC(=O)[C@@H](NC(=O)CNC(=O)[C@H](CCC(=O)O)NC(=O)C(C)(C)NC(=O)[C@@H](N)Cc1c[nH]cn1)[C@@H](C)O)[C@@H](C)O)C(C)C)C(C)C)C(=O)N[C@@H](CCC(N)=O)C(=O)N[C@@H](Cc1c[nH]c2ccccc12)C(=O)N[C@@H](CC(C)C)C(=O)N[C@H](C(N)=O)C(C)C [compound 184] (H-H[Aib]EGTFTSDVSVLLEGAALQRFIQWLV-NH2)
7 | – | 3751 | – | – | 0.08 | 3160 | 0.0316 | 89023 | CC(C)C[C@H](NC(=O)[C@H](Cc1ccccc1)NC(=O)[C@H](CCCNC(=N)N)NC(=O)[C@H](CCC(N)=O)NC(=O)[C@H](CC(C)C)NC(=O)C(C)(C)NC(=O)[C@H](C)NC(=O)[C@H](CCC(=O)O)NC(=O)[C@H](CCC(=O)O)NC(=O)[C@H](Cc1ccccc1)NC(=O)[C@H](CC(C)C)NC(=O)[C@H](Cc1ccc(O)cc1)NC(=O)[C@H](CO)NC(=O)[C@@H](NC(=O)[C@H](CC(=O)O)NC(=O)[C@H](CO)NC(=O)[C@@H](NC(=O)[C@H](Cc1ccccc1)NC(=O)[C@@H](NC(=O)CNC(=O)[C@H](CCC(=O)O)NC(=O)C(C)(C)NC(=O)[C@@H](N)Cc1c[nH]cn1)[C@@H](C)O)[C@@H](C)O)C(C)C)C(=O)N[C@@H](CCC(=O)O)C(=O)N[C@@H](CCCCNC(=O)COCCOCCNC(=O)COCCOCCNC(=O)CC[C@H](NC(=O)CCCCCCCCCCCCCCCCCCC(=O)O)C(=O)O)C(=O)N[C@@H](CC(C)C)C(=O)N[C@H](C(N)=O)C(C)C [compound 176] (H-H[Aib]EGTFTSDVSYLFEEA[Aib]LQRFLEK([AEEA-AEEA-γGlu-C20 diacid])LV-NH2)
